Data from PMC10108392, “Rimonabant-Based Compounds Bearing Hydrophobic Amino Acid Derivatives as Cannabinoid Receptor Subtype 1 Ligands” (ACS Medicinal Chemistry Letters, 2023).
Entries after “also recorded” stand apart in the source; their conditions may differ.

Columns and labels:
CB1R [1] = biological target: T1, CB1R (Rattus norvegicus, UniProt P20272); assay: Ligand stimulated [35S]GTPγS binding assay in rat brain membranes; type: biochemical; settings: for CB1R functional profile (agonist / antagonist / inverse agonist): from [35S]GTPγS binding; for CB1R functional profile (agonist / antagonist / inverse agonist) / EC50: rat brain membranes; for Emax: read-out: [35S]GTPγS stimulation Emax; for EC50: ± SEM, read-out: [35S]GTPγS stimulation EC50
T1 construct: Crude membrane fractions were prepared from the brain; from tissue; host or cells: Wistar rat whole brain, crude membrane fraction
Procedure: (§1) Our novel chemical compounds were tested in vitro for their binding ability, efficacy, and potency on CB1R in rat brain membrane homogenate (Table 2 and SI, Figure S1). CB1Rs are the most abundant G-protein coupled receptors in the rodent and mammalian brain; therefore, this is an appropriate model to characterize our ligands in a more physiological system.
(§2) In Vitro Biological Assays
(§3) Preparation of Brain Membrane Homogenates
Wistar rats were locally bred and handled according to the EU Directive 2010/63/EU and to the Regulations on Animal Protection (40/2013. (II. 14.) Korm. r.) of Hungary. Crude membrane fractions were prepared from the brain. Brains were quickly removed from the euthanized rats and directly put in an ice-cold 50 mM Tris-HCl buffer (pH 7.4). The collected tissue was then homogenized in 30 volumes (v/w) of an ice-cold buffer with a Braun Teflon-glass homogenizer at the highest rpm. The homogenate was centrifuged at 20,000 × g for 25 min, and the resulting pellet was suspended in the same volume of a cold buffer followed by incubation at 37 °C for 30 min to remove endogenous ligands. Centrifugation was then repeated. The final pellets were taken up in five volumes of a 50 mM Tris-HCl (pH 7.4) buffer containing 0.32 M sucrose and stored at -80 °C. Prior to the experiment, aliquots were thawed and centrifuged at 20,000 ×g for 25 min and then they were resuspended in 50 mM Tris-HCl (pH 7.4), homogenized with a Douncer, followed by the determination of the protein concentration by the method of Bradford. The membrane suspensions were immediately used either in radioligand binding experiments or in [35S]GTPγS functional assays. […]
(§4) was terminated by diluting the samples with an ice-cold wash buffer (50 mM of Tris-HCl, 2.5 mM of EGTA, 5 mM of MgCl2, 0.5% fatty acid free BSA, pH 7.4), followed by repeated washing and rapid filtration through Whatman GF/B glass fiber filters (Whatman Ltd., Maidstone, UK) pre-soaked with 0.1% polyethyleneimine (30 min before the filtration). Filtration was performed with a 24-well Brandel Cell Harvester (Gaithersburg, MD, USA). Filters were air-dried and immersed into Ultima Gold MV scintillation cocktail, and then radioactivity was measured with a TRI-CARB 2100TR liquid scintillation analyzer (Packard, Perkin Elmer, Waltham, MA, USA).
Ligand Stimulated [35S]GTPγS Binding Assay
Rat brain membranes (30 µg protein/tube), prepared as described above, were incubated with 0.05 nM of […]
mM of NaCl, 3 mM of MgCl2 and 1 mM of EGTA in a 50 mM Tris-HCl buffer (pH 7.4) for 60 min at 30 °C. Basal [35S]GTPγS binding was measured in the absence of ligands and set as 100%. Nonspecific […]
binding was determined by the addition of 10 µM unlabelled GTPγS and subtracted from total binding.
Incubation, filtration and radioactivity measurements of the samples were carried out as described above. […]
All […]
data and curves were analyzed by GraphPad Prism 5.0 (San Diego, CA, USA).

CB1R [2] = biological target: T1, CB1R; assay: [3H]WIN55,212-2 radioligand competition binding assay in rat brain membrane homogenate; settings: for Ki: read-out: Ki [3H]WIN55,212-2 binding, 5 nM [3H]WIN55,212-2, ± SEM, n.b. = no binding of ligands was observed
Procedure: as §1, §2, §3
Wistar rats were locally bred and handled according to the EU Directive 2010/63/EU and to the Regulations on Animal Protection (40/2013. (II. 14.) Korm. r.) of Hungary. Crude membrane fractions were prepared from the brain. Brains were quickly removed from the euthanized rats and directly put in an ice-cold 50 mM Tris-HCl buffer (pH 7.4). The collected tissue was then homogenized in 30 volumes (v/w) of an ice-cold buffer with a Braun Teflon-glass homogenizer at the highest rpm. The homogenate was centrifuged at 20,000 × g for 25 min, and the resulting pellet was suspended in the same volume of a cold buffer followed by incubation at 37 °C for 30 min to remove endogenous ligands. Centrifugation was then repeated. The final pellets were taken up in five volumes of a 50 mM Tris-HCl (pH 7.4) buffer containing 0.32 M sucrose and stored at -80 °C. Prior to the experiment, aliquots were thawed and centrifuged at 20,000 ×g for 25 min and then they were resuspended in 50 mM Tris-HCl (pH 7.4), homogenized with a Douncer, followed by the determination of the protein concentration by the method of Bradford. The membrane suspensions were immediately used either in radioligand binding experiments or in [35S]GTPγS functional assays.
Radioligand Competition Binding Assay
Binding experiments were performed at 30 °C for 60 min in a 50 mM Tris-HCl binding buffer (pH 7.4) containing 2.5 mM of EGTA, 5 mM of MgCl2 and 0.5 mg/mL of fatty acid-free BSA in plastic tubes in a total assay volume of 1 mL that contained 0.3-0.5 mg/mL of a membrane protein. Competition binding […]
ligands. […] The incubation […]
as §4, with “MA, USA). […]” for “MA, USA).”
The results of the competition binding studies are reported as means ± S.E.M. of at least three independent experiments each performed in duplicate. In competition binding studies, the inhibitory constants (Ki) were calculated from the inflection points of the displacement curves using non-linear least-square curve fitting and the Cheng-Prusoff equation, Ki= […]/(1 + [ligand]/Kd). […]

mice [3] = assay: Feeding test (food intake); type: in vivo, mouse; settings: 10 mg/kg i.p., 1-h test, vs vehicle
Procedure: The tested compounds were injected i.p. (10 mg/kg), and after leaving for 30 min to allow the drug assimilation, mice were placed into individual cages with access to a predefined amount of their standard lab chow (2 g) for the 1-h test.
(§5) In Vivo Biological Assays
The international and national law and policies approved by Italian Ministry of Health were used to comply with all animal care and experimental procedures. Animal studies were advised in compliance with the ARRIVE guidelines and with the recommendations made by EU Directive 2010/63/EU for animal experiments and the Basel declaration including the 3Rs concept. CD-1 male mice (10-14 weeks of age, 25-30 g of weight) were bought from Charles River (Milan, Italy). Shortly after their arrival and for at least one week, they were kept in an animal care facility under controlled standard conditions of temperature (21 ± 1 °C), light (from 7:00 AM to 7:00 PM), and relative humidity (60 ± 10%). Access to drinking water and food was assured. All procedures were performed to decrease the number of animals used (n = 7 per group) and their distress.
The test was carried out as previously described. At 24 h before the start of a feeding test, all food was removed from the home cages of mice to be tested. The next day and at least 1 h before the feeding test began, the mice were transported to the laboratory. On test days, the animals were placed in the home cages for 30 min of drug assimilation, during which food was not available. Then compounds were intraperitoneally administered (10 mg/kg). Mice were transferred into transparent and individual plastic cages with thick white paper lining the bottom and access to a pre-measured amount of their regular lab chow (2 gr) for the 1-h test. At the end of 1 h, mice were repositioned into their home cage. The amount of food left in the trial cage, including crumbs, was measured, and the amount consumed was calculated.
Feeding trials normally happened on Tuesdays and Fridays between 12:00 and 14:00 h. […]

mice [4] = assay: Hot plate test; type: in vivo, mouse; settings: 10 μg/10 μL i.c.v., 15-120 min
Source text: as §5
The international and national law and policies approved by Italian Ministry of Health were used to comply with all animal care and experimental procedures. Animal studies were advised in compliance with the ARRIVE guidelines and with the recommendations made by EU Directive 2010/63/EU for animal experiments and the Basel declaration including the 3Rs concept. CD-1 male mice (10-14 weeks of age, 25-30 g of weight) were bought from Charles River (Milan, Italy). […]
The test was carried out as previously described. […] Mice were transferred into transparent and individual plastic cages with thick white paper lining the bottom and access to a pre-measured amount of their regular lab chow (2 gr) for the 1-h test. […] The amount of food left in the trial cage, including crumbs, was measured, and the amount consumed was calculated. […]
Thermal nociception (hot-plate test) was assessed with a commercially available apparatus consisting of a metal plate 25x25 cm (Ugo Basile, Italy) heated to a constant temperature of 55.0 ± 0.1 °C, on which a plastic cylinder (20 cm diameter, 18 cm high) was placed. The time of latency (s) was recorded from the moment the animal was placed in the cylinder on the hot plate until it licked its paws or jumped; the cut-off time was 60 s. […] The time course of latency was then determined at 15, 30, 45, 60, 90 and 120 min after compound treatment. […]

mice [5] = settings: mice colitis model; cited from earlier work
mice [6] = assay: Zymosan-induced paw edema; type: in vivo, mouse; settings: 100 μg/20 μL s.c., 15 min before zymosan
Procedure: Drugs were administered s.c. in the dorsal surface of the right hind paw at the dose of 100 μg/20 μL, 15 min before zymosan. […]
testing. […] Then, the compounds were
Compounds were prepared by freshly diluting
Then, these solutions were injected for
The total time the animal spent licking or biting its paw was calculated.
Then, paw edema was calculated as formerly
Paw volume was quantified using a
Data Analysis and Statistics
Statistically significant differences between
Data were considered statistically
The data and statistical analyses respected the recommendations on experimental design and analysis.

[7] = test system: rats with spinal cord injury (SCI); settings: repeated treatment; cited from earlier work
partially satiated rats = settings: cited from earlier work

T1 sequence (P20272 whole entry): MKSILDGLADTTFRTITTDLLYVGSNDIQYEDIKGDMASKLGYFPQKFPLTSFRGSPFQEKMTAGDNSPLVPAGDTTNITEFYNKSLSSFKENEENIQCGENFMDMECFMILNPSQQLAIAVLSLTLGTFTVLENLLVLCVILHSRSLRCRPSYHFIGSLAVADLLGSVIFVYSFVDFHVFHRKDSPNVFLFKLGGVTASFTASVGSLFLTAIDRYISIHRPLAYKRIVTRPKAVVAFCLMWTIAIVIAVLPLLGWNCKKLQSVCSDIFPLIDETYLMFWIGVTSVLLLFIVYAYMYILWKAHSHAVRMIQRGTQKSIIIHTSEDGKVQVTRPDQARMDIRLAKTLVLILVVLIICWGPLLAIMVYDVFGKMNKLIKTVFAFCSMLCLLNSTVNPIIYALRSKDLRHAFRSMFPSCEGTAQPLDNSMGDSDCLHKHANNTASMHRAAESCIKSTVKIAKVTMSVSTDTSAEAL

Row | Structure (SMILES) | CB1R functional profile (agonist / antagonist / inverse agonist) (CB1R [1]) | Emax (CB1R [1]) [%] | Ki (CB1R [2]) [nM] | food intake (mice [3]) | EC50 (CB1R [1]) [nM] | anti-nociceptive effect in hot plate test (%MPE) (mice [4]) | anti-inflammatory effect in DSS-induced colitis (mice [5]) | anti-inflammatory effect on zymosan-induced paw volume increase (mice [6]) | neuropathic pain-related behavior [7] | food intake and motor behavior after WIN55,212-2 (partially satiated rats; higher doses (5 mg/kg), partially satiated rats) | food intake after WIN55,212-2 (partially satiated rats; i.p. 1 mg/kg and 2 mg/kg, up to 6 h after the injection) | Ki [3H]WIN55,212-2 binding (CB1R [2]; 5 nM [3H]WIN55,212-2, ± SEM, n.b. = no binding of ligands was observed)
1 | COC(=O)[C@@H](NC(=O)c1nn(-c2ccc(Cl)cc2)c(-n2cccc2)c1C)C(C)(C)C [Compound 24, RS2691-tLeu-OCH3] | inverse agonists; also recorded: strong antagonist | 99 ± 4 | 17 ± 3.7 | slight reduction in food intake |  |  |  |  |  |  |  | 
2 | COC(=O)[C@@H](NC(=O)c1cc(-n2cccc2)n(-c2ccccc2)n1)C(C)(C)C [Compound 26, RS2708-tLeu-OCH3] | inverse agonists | 44 ± 5 | 283 ± 18 | strong anorexic effect comparable to that of rimonabant | 1290 ± 151 |  |  |  |  |  |  | 
3 | COC(=O)[C@@H](NC(=O)c1nn(-c2ccc(Cl)cc2Cl)c(-n2cccc2Cl)c1C)C(C)C [Compound 29, RS3516-Val-OCH3] | inverse agonists | 44 ± 10 | 30 ± 3.5 | strong anorexic effect comparable to that of rimonabant | 2840 ± 118 |  |  |  |  |  |  | 
4 | Cc1c(C(=O)N[C@H](C(N)=O)C(C)(C)C)nn(-c2ccccc2)c1-n1cccc1 [Compound 18, RS2709-tLeu-NH2] | inverse agonist | 57 ± 13 | 60 ± 6.1 | slight reduction in food intake | 3320 ± 242 |  |  |  |  |  |  | 
5 | COC(=O)[C@@H](NC(=O)c1cc(-n2cccc2)n(-c2ccc(Cl)cc2)n1)C(C)C [Compound 21, RS2689-Val-OCH3] | inverse agonists | 52 ± 4.8 | 261 ± 27 | slight reduction in food intake | 1360 ± 139 |  |  |  |  |  |  | 
6 | Cc1c(C(=O)c2cccc3ccccc23)c2cccc3c2n1[C@H](CN1CCOCC1)CO3 [WIN55,212-2] |  | 170 ± 1.7 |  |  |  | diminished immediately after administration | acting as an anti-inflammatory drug with improved pathological changes | induced an anti-inflammatory effect | sustained decrease in neuropathic pain-related behavior | inhibit the food intake and motor behavior | hyperphagia | 
7 | COC(=O)[C@@H](NC(=O)c1cc(-n2cccc2)n(-c2ccc(Cl)cc2)n1)C(C)(C)C [Compound 22, RS2689-tLeu-OCH3] | inverse agonists | 43 ± 12 | 44 ± 4 | activity profile close to that of the vehicle | 4960 ± 333 |  |  |  |  |  |  | 
8 | Cc1c(C(=O)N[C@H](C(N)=O)C(C)(C)C)nn(-c2ccc(Cl)cc2)c1-n1cccc1 [Compound 14, RS2691-tLeu-NH2] | antagonist | 104 ± 1.4 | 21 ± 3.8 | activity profile close to that of the vehicle |  |  |  |  |  |  |  | 
9 | Cc1c(C(=O)N[C@H](C(=O)O)C(C)(C)C)nn(-c2ccc(Cl)cc2Cl)c1-n1cccc1Cl [Compound 10, RS3516-tLeu-OH] |  |  |  |  | 1650 ± 98 |  |  |  |  |  |  | n.b.
